Measurements published in US6958233B2, “Process for the preparation of pharmaceutically acceptable salts of (R,S)-S-adenosyl-L-methionine” (Chementecno S.r.l., priority 2000, dated 2005).

Assays:
[1] = HPLC analysis of the (S)-(+)-SAMe / (R)-(+)-SAMe diastereoisomer content (stability in time); assay type: physicochemical; conditions: after four months from the date of production
Protocol: 3 samples of SAMIR® [(R,S)-SAMe], produced by Knoll Farmaceutici S.p.A., were analyzed by HPLC. The values measured for each sample are as follows:
The products obtained according to the process of the invention in EXAMPLES 1-3, samples 4-6 respectively, were analyzed, similarly to what has been described in example 4, after four months from the date of their production.
The measured values for each sample were as follows: […]

[2] = tested on: enzymatic transmethylation; conditions: De La Haba et al., J.A.C.S. 1959; cited from earlier work
[3] = Wu et al., Biochemistry 1983; cited from earlier work

| SMILES | percentage of (R)-(+)-SAMe [1] | percentage of (S)-(+)-SAMe [1] | percentage of (R)-(+)-SAMe ([1]; listed as sample N. 4) | enzymatic activity for the transmethylation [2] | formation of the inactive diastereoisomer (R)-(+)-SAMe by spontaneous racemisation [3] |
| --- | --- | --- | --- | --- | --- |
| C[S@@+](CC[C@H](N)C(=O)[O-])C[C@H]1O[C@@H](n2cnc3c(N)ncnc32)C(O)C1O (stereo in doubt) [(R)-(+)-SAMe, (R)-(+)-S-adenosyl-L-methionine] |  |  |  | inactive |  |
| C[S@@+](CC[C@H](N)C(=O)[O-])C[C@H]1O[C@@H](n2cnc3c(N)ncnc32)C(O)C1O (stereo in doubt) [(S)-(+)-SAMe, (S)-(+)-S-adenosyl-L-methionine] |  |  |  | enzymatically active | about 20% |

Second part, led by results:

| percentage of (R)-(+)-SAMe [1] | percentage of (S)-(+)-SAMe [1] | percentage of (R)-(+)-SAMe ([1]; listed as sample N. 4) | SMILES | enzymatic activity for the transmethylation [2] | formation of the inactive diastereoisomer (R)-(+)-SAMe by spontaneous racemisation [3] |
| --- | --- | --- | --- | --- | --- |
| 2% | 98% |  | C[S+](CC[C@H](N)C(=O)[O-])C[C@H]1O[C@@H](n2cnc3c(N)ncnc32)[C@H](O)[C@@H]1O.Cc1ccc(S(=O)(=O)O)cc1.O=S(=O)(O)O.O=S(=O)(O)O (single isomer, unassigned) [SAMPLE 6] |  |  |
| 2% | 98% |  | C[S+](CC[C@H](N)C(=O)[O-])C[C@H]1O[C@@H](n2cnc3c(N)ncnc32)[C@H](O)[C@@H]1O.Cc1ccc(S(=O)(=O)O)cc1.O=S(=O)(O)O.O=S(=O)(O)O (single isomer, unassigned) [SAMPLE 5, (SS, RS)-SAMe disulphate paratoluensulphonate] |  |  |
| 1% | 99% | 1% | C[S+](CC[C@H](N)C(=O)[O-])C[C@H]1O[C@@H](n2cnc3c(N)ncnc32)[C@H](O)[C@@H]1O.Cc1ccc(S(=O)(=O)O)cc1.O=S(=O)(O)O.O=S(=O)(O)O (single isomer, unassigned) [SAMPLE 4] |  |  |
